# Measurements taken from US4574080A, “Combination formulation” (A/S Alfred Benzon, priority 1982, dated 1986).
# Experiments:
# [1] = Adhesion of clopamide to (film-coated) potassium chloride crystals after dry coating / mechanical stress; type: physicochemical; conditions: for A: amount of clopamide adhered immediately after the dry coating / B: clopamide adhered per dose of finished granulate / C: clopamide removed during mixing of the granulate (A-B): Table 2, Talc 2.0 ×
# Protocol: A sample containing film-coated KCl-crystals with clopamide adhered to the surface was placed on a sieve.
# The sieve and sample were shaken (Pascal sieve, model 1) for 15 minutes. The quantity of clopamide adhered to the film-coated crystals was then determined as described under Content Uniformity (clopamide)
# The amount of clopamide adhered was determined as described under MATERIALS AND METHODS. In Table 1, the influence of the anti-adhesive and the coating time on the adhesion tendency of clopamide is shown.
# As a considerable amount of the clopamide (about 20%) is removed by the admixture of the necessary auxiliary materials for the tabletting process (vide Table 1), it was examined whether a more gentle, but more laborious method in which the auxiliary materials are premixed separately, thus reducing the final mixing time, would reduce this removal.
# The examinations were carried out as described above for the examination of the adhesion tendency of clopamide, and the amount of clopamide adhered was again determined as described under MATERIALS AND METHODS; the dry coating time was 60 minutes. The results are shown in Table 3 wherein A, B and C are as described above, and D designates the relative amount of adhered clopamide abrased during the final mixing [formula]
# [2] = Diuretic effect (urine volume) in healthy subjects; type: in vivo, human (healthy subjects); conditions: clopamide 20 mg
# Protocol: Complete balanced cross-over study with single dose administration.
# Blood samples were collected 36 hours and urine samples 24 hours after administration.
# 10 healthy subjects without any history of renal, hepatic, gastrointestinal or heart disease.
# Clopamide 20 mg and potassium chloride 2400 mg (32 mEq):
# Two days before drug administration and throughout the test days the volunteers were kept on a low potassium diet (less than 30 mEq) and a standardized calorie intake of about 2000 kcal per day. No tea, coffee or alcohol was allowed. For the individual person the diet was identical on all six test days (2 period of 3 days).
# The day before drug aministration the volunteers were given 100 ml water every hour from 09.00 a.m. during the next 12 hours, i.e. 1300 ml water per day. The same procedure was followed on the test day.
# Blood samples were drawn before dosing and 1, 2, 3, 4, 6, 8, 12, 24 and 36 hours after. Urine was collected quantitatively 24 hours before drug administration and 24 hours after in aliquots: 0-1 h, 1-2 h, 2-3 h, 3-4 h, 4-6 h, 6-8 h, 8-12 h, and 12-24 h.
# Data which fulfil the requirement for using parametric tests were analyzed by a three-way analysis of variance, splitting the total variation up into variations between subjects, treatment periods, treatment and residual. Logarithmic transformations of the variables have been used in appropriate cases.
# [3] = Colloidal silicon dioxide 0.13 × the amount of clopamide, coating time 10 min
# [4] = Colloidal silicon dioxide 0.13 × the amount of clopamide, coating time 30 min
# [5] = Colloidal silicon dioxide 0.13 × the amount of clopamide, coating time 60 min
# [6] = gentle admixture of auxiliary materials (5 min), coating time 60 min
# [7] = usual admixture of auxiliary materials (11 min), coating time 60 min
# [8] = Talc 2.0 × the amount of clopamide, coating time 10 min
# [9] = Talc 2.0 × the amount of clopamide, coating time 30 min
# [10] = Talc 2.0 × the amount of clopamide, coating time 60 min
# [11] = Talc […] the amount of clopamide, coating time 10 min
# [12] = Talc […] the amount of clopamide, coating time 30 min
# [13] = Talc […] the amount of clopamide, coating time 60 min
# [14] = treatment days compared to control days
structure (smiles),measurement,setting,value
"C[C@@H]1CCC[C@H](C)N1NC(=O)c1ccc(Cl)c(S(N)(=O)=O)c1 [Clopamide, 4-chloro-N--(cis-2,6-dimethylpiperidino)-3-sulfamoyl-benzamide]",A: amount of clopamide adhered in percent of the theoretical dose immediately after the dry coating,[1]; [3],70.4%
same,B: percentage of the theoretical dose of clopamide adhered per dose of finished granulate,[1]; [3],60.2%
same,C: percentage of a dose of clopamide removed during the mixing of the granulate (A-B),[1]; [3],10.2%
same,A: amount of clopamide adhered in percent of the theoretical dose immediately after the dry coating,[1]; [4],75.2%
same,B: percentage of the theoretical dose of clopamide adhered per dose of finished granulate,[1]; [4],58.8%
same,C: percentage of a dose of clopamide removed during the mixing of the granulate (A-B),[1]; [4],16.4%
same,A: amount of clopamide adhered in percent of the theoretical dose immediately after the dry coating,[1]; [5],85.8%
same,B: percentage of the theoretical dose of clopamide adhered per dose of finished granulate,[1]; [5],66.6%
same,C: percentage of a dose of clopamide removed during the mixing of the granulate (A-B),[1]; [5],19.2%
same,A: amount of clopamide adhered immediately after the dry coating,[1]; [6],83.0%
same,B: clopamide adhered per dose of finished granulate,[1]; [6],70.0%
same,C: clopamide removed during mixing of the granulate (A-B),[1]; [6],13.0%
same,A: amount of clopamide adhered immediately after the dry coating,[1]; [7],86.2%
same,B: clopamide adhered per dose of finished granulate,[1]; [7],70.6%
same,C: clopamide removed during mixing of the granulate (A-B),[1]; [7],15.6%
same,A: amount of clopamide adhered in percent of the theoretical dose immediately after the dry coating,[1]; [8],76.4%
same,B: percentage of the theoretical dose of clopamide adhered per dose of finished granulate,[1]; [8],53.8%
same,C: percentage of a dose of clopamide removed during the mixing of the granulate (A-B),[1]; [8],22.6%
same,A: amount of clopamide adhered in percent of the theoretical dose immediately after the dry coating,[1]; [9],87.6%
same,B: percentage of the theoretical dose of clopamide adhered per dose of finished granulate,[1]; [9],65.4%
same,C: percentage of a dose of clopamide removed during the mixing of the granulate (A-B),[1]; [9],22.2%
same,A: amount of clopamide adhered in percent of the theoretical dose immediately after the dry coating,[1]; [10],86.2%
same,B: percentage of the theoretical dose of clopamide adhered per dose of finished granulate,[1]; [10],70.6%
same,C: percentage of a dose of clopamide removed during the mixing of the granulate (A-B),[1]; [10],15.6%
same,A: amount of clopamide adhered in percent of the theoretical dose immediately after the dry coating,[1]; [11],96.4%
same,B: percentage of the theoretical dose of clopamide adhered per dose of finished granulate,[1]; [11],65.0%
same,C: percentage of a dose of clopamide removed during the mixing of the granulate (A-B),[1]; [11],31.4%
same,A: amount of clopamide adhered in percent of the theoretical dose immediately after the dry coating,[1]; [12],88.4%
same,B: percentage of the theoretical dose of clopamide adhered per dose of finished granulate,[1]; [12],69.8%
same,C: percentage of a dose of clopamide removed during the mixing of the granulate (A-B),[1]; [12],18.6%
same,A: amount of clopamide adhered in percent of the theoretical dose immediately after the dry coating,[1]; [13],100.2%
same,B: percentage of the theoretical dose of clopamide adhered per dose of finished granulate,[1]; [13],78.6%
same,C: percentage of a dose of clopamide removed during the mixing of the granulate (A-B),[1]; [13],21.6%
same,effect of increased coating time on adhesion (in words),[1]; talc as anti-adhesive,"not only an increased adhesion, but also a more resistant adhesion"
same,amount of clopamide removed by the admixture of the auxiliary materials,[1]; vide Table 1,about 20%
same,"total 24 h urine, percent of that of control days",[2]; 95% CI 138.9 to 185.3%,160.4%
same,24 hours urine volume (in words),[2]; [14],statistically significant increase
same,hourly maximal urine volume (in words),[2]; [14],statistically significant increase
